Counter-ions that a name gives are not always drawn.
Molecular target: T1, Human Histamine H3 Receptor (Homo sapiens, UniProt Q9Y5N1)
T1 construct: expressed in transfected cells; host or cells: HEK293T (stably transfected; membranes prepared from the cells)
Experiment: Methyl histamine binding in human histamine H3 receptor cell line
Details: read-out: H3 Binding Ki
Method: Evaluation of Methyl Histamine Binding in Human Histamine H3 Receptor Cell Line
The affinity of test compounds for the histamine 3 (H3) receptor is evaluated in the following manner. […] Cells are scraped from the plate, transferred to centrifuge tubes, washed one time in PBS by centrifugation in a Sorvall RT7 Plus centrifuge (2000 rpm 10 minutes, 4° C.). The resulting pellets are stored at −80° C. until ready for use. Cells are re-suspended in buffer (50 mM Tris pH=7.5) and placed in a Dounce homogenizer, douncing ten times to homogenize cells. The homogenate is spun down by centrifugation (Sorvall RT7 Plus, 1800 rpm 10 minutes, 4° C.). The supernatant is placed in a Corex tube and spun down by centrifugation (Sorvall RC 5c Plus, 17,000 rpm 20 minutes, 4° C.). The pellet is resuspended in buffer (50 mM Tris, pH 7.5). Protein concentration (ug/ul) is determined using the Micro-BCA Protein Determination. The binding assay is set up in a 96 well microtiter plate in a total volume of 250 uL. Non-specific binding is determined in the presence of 10 uM clobenpropit. The final radioligand concentration is 1 nM. The test compound is serially diluted using the Beckman Biomek2000 to a final approximate range of 100 uM to 100 pM. Membranes are suspended in buffer, homogenized in 2 bursts of ten seconds using a Vitris mechanical homogenizer set at power setting 5. Ten μg of membranes are added to each well. Following a one hour incubation at 30° C., the reaction is terminated by the addition of ice cold buffer and rapid filtration with a Packard Filtermate Harvester through a GF/B filter pre-soaked with 1% PEI for one hour. The plate is dried for one hour at 37° C. and 60 μL Microscint Scintillant is added to each well. The CPM per well is measured on a Packard Top Count NXT. Ki values are determined in nM. […] CPM values are expressed as % specific binding and plotted vs compound concentration. A curve is fitted using a four-parameter logistic fit and the IC50 value is determined. The Ki is calculated from this using the Cheng-Prusoff equation: […]=IC50/1+(L/Kd) where L=concentration of free radioligand used in the assay, and Kd is the dissociation constant of the radioligand for the receptor. L is determined for each experiment by counting an aliquot of the diluted radioligand (corresponding to that added to each well) and the Kd has previously been determined under identical conditions for this cell line/radioligand.

T1 sequence (Q9Y5N1 whole entry): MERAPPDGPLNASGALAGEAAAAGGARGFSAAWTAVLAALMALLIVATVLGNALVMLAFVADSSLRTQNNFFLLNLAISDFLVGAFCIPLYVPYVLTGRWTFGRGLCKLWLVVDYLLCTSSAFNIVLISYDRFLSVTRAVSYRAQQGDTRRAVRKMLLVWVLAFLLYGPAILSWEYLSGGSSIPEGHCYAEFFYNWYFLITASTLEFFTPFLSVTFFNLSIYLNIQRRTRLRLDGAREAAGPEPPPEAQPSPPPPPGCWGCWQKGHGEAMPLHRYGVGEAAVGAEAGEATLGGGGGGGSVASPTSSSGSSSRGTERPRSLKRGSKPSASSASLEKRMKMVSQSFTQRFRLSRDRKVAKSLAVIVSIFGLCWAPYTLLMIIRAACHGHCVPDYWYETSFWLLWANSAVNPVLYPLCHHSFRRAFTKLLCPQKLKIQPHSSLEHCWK

Row | Structure (SMILES) | Ki [nM]
1 | CCNC(=O)c1ccc(-c2ccc3c(c2)CCN(CCN2CCCC2)C3=O)cc1 [Example 58, N-ethyl-4-[1-oxo-2-(2-pyrrolidin-1-ylethyl)-1,2,3,4-tetrahydroisoquinolin-6-yl]benzamide] | < 10
2 | N#Cc1ccc(-c2ccc3c(c2)CCN(CCN2CCCC2)C3=O)cc1 [Example 19, 4-[1-oxo-2-(2-pyrrolidin-1-ylethyl)-1,2,3,4-tetrahydroisoquinolin-6-yl]benzonitrile] | < 10
3 | O=C1c2ccc(-c3ccccc3F)cc2CCN1CCN1CCCC1 [Example 12, 6-(2-fluorophenyl)-2-(2-pyrrolidin-1-ylethyl)-3,4-dihydroisoquinolin-1(2H)-one] | 10.1 to 25
4 | CCN(CC)C(=O)c1ccc(-c2ccc3c(c2)CCN(CCN2CCC[C@H]2C)C3=O)cc1 [Example 65, N,N-diethyl-4-(2-{2-[(2R)-2-methylpyrrolidin-1-yl]ethyl}-1-oxo-1,2,3,4-tetrahydroisoquinolin-6-yl)benzamide] | < 10
5 | CC(C)NC(=O)c1ccc(-c2ccc3c(c2)C(=O)N(CCN2CCC[C@H]2C)CC3)cc1 [Example 85, N-isopropyl-4-(2-{2-[(2R)-2-methylpyrrolidin-1-yl]ethyl}-1-oxo-1,2,3,4-tetrahydroiso-quinolin-7-yl)benzamide] | < 10
6 | CON(C)C(=O)c1ccc(-c2ccc3c(c2)CCN(CCN2CCCC2)C3=O)cc1 [Example 102, N-methoxy-N-methyl-4-(1-oxo-2-(2-(pyrrolidin-1-yl)ethyl)-1,2,3,4-tetrahydroisoqui-nolin-6-yl)benzamide] | < 10
7 | COCCNC(=O)c1ccc(-c2ccc3c(c2)CCN(CCN2CCCC2)C3=O)cc1 [Example 69, N-(2-methoxyethyl)-4-[1-oxo-2-(2-pyrrolidin-1-ylethyl)-1,2,3,4-tetrahydroisoquinolin-6-yl]benzamide] | < 10
8 | CCNC(=O)c1ccc(-c2ccc3c(c2)C(=O)N(CCN2CCC[C@H]2C)CC3)cc1 [Example 84, N-ethyl-4-(2-{2-[(2R)-2-methylpyrrolidin-1-yl]ethyl}-1-oxo-1,2,3,4-tetrahydroiso-quinolin-7-yl)benzamide] | < 10
9 | CC(C)NC(=O)c1ccc(-c2ccc3c(c2)CCN(CCN2CCC[C@H]2C)C3=O)cc1 [Example 77, N-isopropyl-4-(2-{2-[(2R)-2-methylpyrrolidin-1-yl]ethyl}-1-oxo-1,2,3,4-tetrahydroisoquinolin-6-yl)benzamide] | < 10
10 | C[C@@H]1CCCN1CCN1CCc2cc(Oc3ccc(C#N)nc3)ccc2C1=O [Example 51, 5-[(2-{2-[(2R)-2-methylpyrrolidin-1-yl]ethyl}-1-oxo-1,2,3,4-tetrahydroisoquinolin-6-yl)oxy]pyridine-2-carbonitrile] | < 10
11 | CCN(CC)C(=O)c1ccc(Oc2ccc3c(c2)CCN(CCN2CCCC2)C3=O)cc1 [Example 96, N,N-diethyl-4-{[1-oxo-2-(2-pyrrolidin-1-ylethyl)-1,2,3,4-tetrahydroisoquinolin-6-yl]oxy}benzamide] | 25.1 to 50
12 | CNC(=O)c1ccc(-c2ccc3c(c2)CCN(CCN2CCC[C@H]2C)C3=O)cc1 [Example 78, N-methyl-4-(2-{2-[(2R)-2-methylpyrrolidin-1-yl]ethyl}-1-oxo-1,2,3,4-tetrahydroisoquinolin-6-yl)benzamide] | < 10
13 | CNC(=O)c1ccc(Oc2ccc3c(c2)CCN(CCN2CCCC2)C3=O)nc1 [Example 101, N-Methyl-6-(1-oxo-2-(2-(pyrrolidin-1-yl)ethyl)-1,2,3,4-tetrahydro-isoquinolin-6-yloxy)nicotinamide hydrochloride] | 25.1 to 50
14 | O=C(NCCOc1ccccc1)c1ccc(-c2ccc3c(c2)CCN(CCN2CCCC2)C3=O)cc1 [Example 71, 4-[1-oxo-2-(2-pyrrolidin-1-ylethyl)-1,2,3,4-tetrahydroisoquinolin-6-yl]-N-(2-phenoxyethyl)-benzamide] | 50.1 to 100
15 | O=C1c2ccc(-c3ccc(F)cc3)cc2CCN1CCN1CCCC1 [Example 9, 6-(4-fluorophenyl)-2-(2-pyrrolidin-1-ylethyl)-3,4-dihydroiso-quinolin-1(2H)-one Hydrochloride] | 10.1 to 25
16 | O=C(NCC1CC1)c1ccc(-c2ccc3c(c2)CCN(CCN2CCCC2)C3=O)cc1 [Example 60, N-(cyclopropylmethyl)-4-[1-oxo-2-(2-pyrrolidin-1-ylethyl)-1,2,3,4-tetrahydroiso-quinolin-6-yl]benzamide] | < 10
17 | O=C(c1ccc(-c2ccc3c(c2)CCN(CCN2CCCC2)C3=O)cc1)N1CCCCC1 [Example 79, 6-[4-(piperidin-1-ylcarbonyl)phenyl]-2-(2-pyrrolidin-1-ylethyl)-3,4-dihydroisoquinolin-1(2H)-one] | < 10
18 | C[C@@H]1CCCN1CCN1CCc2cc(-c3ccc(C(=O)NCC4CC4)cc3)ccc2C1=O [Example 73, N-(cyclopropylmethyl)-4-(2-{2-[(2R)-2-methylpyrrolidin-1-yl]ethyl}-1-oxo-1,2,3,4-tetrahydroisoquinolin-6-yl)benzamide] | < 10
19 | O=C(NC1CC1)c1ccc(-c2ccc3c(c2)CCN(CCN2CCCC2)C3=O)cc1 [Example 57, N-cyclopropyl-4-[1-oxo-2-(2-pyrrolidin-1-ylethyl)-1,2,3,4-tetrahydroisoquinolin-6-yl]benzamide] | < 10

More lines, now with the values ahead:

Row | Ki [nM] | Structure (SMILES)
20 | < 10 | C[C@@H]1CCCN1CCN1CCc2cc(OCc3ccc(C#N)cc3)ccc2C1=O [Example 120, (R)-4-((2-(2-(2-Methylpyrrolidin-1-yl)ethyl)-1-oxo-1,2,3,4-tetra-hydroisoquinolin-6-yloxy)methyl)benzonitrile hydrochloride]
21 | < 10 | C[C@@H]1CCCN1CCN1CCc2cc(C(=O)N3CCc4ccccc4C3)ccc2C1=O [Example 150, 6-(3,4-dihydroisoquinolin-2(1H)-ylcarbonyl)-2-{2-[(2R)-2-methylpyrrolidin-1-yl]ethyl}-3,4-dihydroisoquinolin-1(2H)-one]
22 | < 10 | C[C@@H]1CCCN1CCN1CCc2cc(N3CCCCC3)ccc2C1=O [Example 161, 2-{2-[(2R)-2-methylpyrrolidin-1-yl]ethyl}-6-piperidin-1-yl-3,4-dihydroisoquinolin-1(2H)-one]
23 | < 10 | C[C@@H]1CCCN1CCN1CCc2cc(-c3ccc4c(c3)CCNC4=O)ccc2C1=O [Example 157, (R)-2-(2-(2-methylpyrrolidin-1-yl)ethyl)-3,3′,4,4′-tetrahydro-6,6′-biisoquinoline-1,1′(2H,2′H-dione hydrochloride]
24 | < 10 | COC[C@@H]1CCCN1C(=O)c1ccc(-c2ccc3c(c2)CCN(CCN2CCCC2)C3=O)cc1 [Example 128, 6-(4-{[(2S)-2-(methoxymethyl)pyrrolidin-1-yl]carbonyl}phenyl)-2-(2-pyrrolidin-1-ylethyl)-3,4-dihydroisoquinolin-1(2H)-one]
25 | < 10 | C[C@@H]1CCCN1CCN1CCc2cc(C(=O)NC3CCC3)ccc2C1=O [Example 145, N-cyclobutyl-2-{2-[(2R)-2-methylpyrrolidin-1-yl]ethyl}-1-oxo-1,2,3,4-tetrahydroisoquinoline-6-carboxamide]
26 | < 10 | CN(C)C(=O)c1ccc(-c2ccc3c(c2)CCN(CCN2CCCC2)C3=O)c(F)c1 [Example 137, 3-fluoro-N,N-dimethyl-4-[1-oxo-2-(2-pyrrolidin-1-ylethyl)-1,2,3,4-tetrahydroisoquinolin-6-yl]benzamide]
27 | < 10 | C[C@@H]1CCCN1CCN1CCc2cc(C(=O)N3CCCCCC3)ccc2C1=O [Example 144, 6-(azepan-1-ylcarbonyl)-2-{2-[(2R)-2-methylpyrrolidin-1-yl]ethyl}-3,4-dihydroisoquinolin-1(2H)-one]
28 | < 10 | O=C(NCc1ccco1)c1ccc(-c2ccc3c(c2)CCN(CCN2CCCC2)C3=O)cc1 [Example 125, N-(2-furylmethyl)-4-[1-oxo-2-(2-pyrrolidin-1-ylethyl)-1,2,3,4-tetrahydroisoquinolin-6-yl]benzamide]
29 | < 10 | C[C@@H]1CCCN1CCN1CCc2cc(C(=O)NC3CCCCC3)ccc2C1=O [Example 147, N-cyclohexyl-2-{2-[(2R)-2-methylpyrrolidin-1-yl]ethyl}-1-oxo-1,2,3,4-tetrahydroisoquinoline-6-carboxamide]
30 | < 10 | C[C@@H]1CCCN1CCN1CCc2cc(C(=O)Nc3ccncc3)ccc2C1=O [Example 153, 2-{2-[(2R)-2-methylpyrrolidin-1-yl]ethyl}-1-oxo-N-pyridin-4-yl-1,2,3,4-tetrahydroisoquinoline-6-carboxamide]
